The values that follow are results of earlier work, collected in US20240091144A1, “MULTI-LAYER ORAL THIN FILM” (LTS Lohmann Therapie-Systeme AG, priority 2021, published 2024).

The conditions of data set [1]: compared with (R)-ketamine.
For data set [2] the following is noted: at 20° C.

For `CNC1(c2ccccc2Cl)CCCCC1=O` (racemic) [(S)-ketamine, (S)-(±)-2-(2-chlorophenyl)-2-(methylamino)cyclohexan-1-one], the “analgesic and anaesthetic potency relative to the (R) form” value in data set [1] was “approximately three times higher”.
With `NC(CO)(CO)CO` [TRIS, tris(hydroxymethyl)aminomethane], in data set [2], the pKs is 8.2.
